In patent publication EP4610269A1, “UROKINASE PLASMINOGEN ACTIVATOR SURFACE RECEPTOR (UPAR) LIGANDS FOR DIAGNOSTIC OR THERAPEUTIC USE” (3B Pharmaceuticals GmbH, priority 2024, dated 2025):
Read-outs that look alike come from different tables or passages of the source. Where a SMILES comes first, the peptide text is derived from it. Bridges are numbered along the chain shown (N, C = ends). [ ]: non-standard residue; d: D form. The star is where a group is joined. DOTA = O=C(O)CN1CCN(CC(=O)O)CCN(CC(=O)*)CCN(CC(=O)O)CC1; NMeR = CN[C@@H](CCCNC(=N)N)C(=O)O; Hyp = O=C(O)[C@@H]1C[C@@H](O)CN1; hPhe = N[C@@H](CCc1ccccc1)C(=O)O; Pentanoyl(4-Me) = CC(C)CCC(=O)*; 2Thi = N[C@@H](Cc1cccs1)C(=O)O; Cit = NC(=O)NCCC[C@H](N)C(=O)O; NMeL = CN[C@@H](CC(C)C)C(=O)O; Butoxycarbonyl = CCCCOC(=O)*; Nva = CCC[C@H](N)C(=O)O; Pentanoyl = CCCCC(=O)*

What was measured:
[1] = molecular target: T1, human uPAR (uPAR-Fc) (Homo sapiens, UniProt Q03405); test: Surface plasmon resonance (SPR) assay, single cycle kinetics; format: binding; details: pKD category for uPAR SPR activity assay, uPAR-Fc on Protein A-Chip, 25°C; for Kd: read-out: pKD CAT (converted)
T1 construct: comprising amino acids Leu23-Arg303 according to UniProt entry Q03405.1; purchased R&D Systems 10378-UK-100
T1 sequence (Q03405 23-303): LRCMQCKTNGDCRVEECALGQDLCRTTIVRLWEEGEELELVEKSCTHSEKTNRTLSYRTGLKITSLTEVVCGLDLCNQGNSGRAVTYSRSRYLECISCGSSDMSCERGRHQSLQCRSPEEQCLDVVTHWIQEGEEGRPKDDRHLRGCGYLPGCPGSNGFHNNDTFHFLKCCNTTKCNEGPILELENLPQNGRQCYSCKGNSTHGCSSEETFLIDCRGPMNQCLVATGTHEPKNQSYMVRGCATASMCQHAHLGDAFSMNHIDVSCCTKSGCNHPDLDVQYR
Method in brief: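 uPAR-Fc (Leu23-Arg303 extracellular domains, human IgG1 Fc) captured on Protein A chip to ~2000 RU; single-cycle kinetics at 25°C in HEPES running buffer pH 7.4 with 0.1% DMSO. KD from double-referenced sensorgrams fitted to 1:1 Langmuir model, reported as pKD.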

[2] = molecular target: T2, uPAR-expressing HEC-265 human endometrial adenocarcinoma cells (Homo sapiens, UniProt Q03405); test: Competitive FACS binding assay; details: pIC50 category of FACS binding
T2 construct: Cell surface uPAR-expressing HEC-265 human endometrial adenocarcinoma cells; host or cells: HEC-265
T2 sequence (Q03405 23-335): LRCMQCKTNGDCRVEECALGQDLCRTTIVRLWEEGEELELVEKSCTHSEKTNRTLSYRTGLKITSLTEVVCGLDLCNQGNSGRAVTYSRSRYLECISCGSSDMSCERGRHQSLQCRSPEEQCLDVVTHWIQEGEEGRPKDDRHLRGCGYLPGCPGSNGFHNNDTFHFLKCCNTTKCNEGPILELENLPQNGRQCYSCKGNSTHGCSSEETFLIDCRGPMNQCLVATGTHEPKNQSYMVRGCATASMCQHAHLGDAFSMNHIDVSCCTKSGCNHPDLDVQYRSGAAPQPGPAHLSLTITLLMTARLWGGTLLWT
Method in brief: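 HEC-265 cells incubated 1 h at 4 °C with 10 nM biotinylated uPAR peptide tracer plus increasing test compound, then stained with APC-streptavidin on ice. Median APC fluorescence by flow cytometry; 4PL fit gives pIC50.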

Molecule | Kd [1] | IC50 [2] | pKD CAT [1] | pIC50 CAT [2] | Kd ([1]; single cycle kinetics)
Pent-[Cys-Cit-Lys(LuDOTA)-Tyr-Egm-Pro-Hyp-Ile-Nva-Cys]-NH2 [UPAR-254] |  |  | A (pKD values ≥ 8.8) | A (pIC50 values ≥8.0) | 
CCCCOC(=O)N[C@H]1CSSC[C@@H](C(N)=O)NC(=O)[C@H](CCC)NC(=O)[C@H]([C@@H](C)CC)NC(=O)[C@@H]2C[C@@H](O)CN2C(=O)[C@@H]2CCCN2C(=O)[C@H](Cc2cccs2)NC(=O)[C@H](Cc2ccc(O)cc2)NC(=O)[C@H](CCCCNC(=O)CN2CCN(CC(=O)O)CCN(CC(=O)O)CCN(CC(=O)O)CC2)NC(=O)[C@H]([C@@H](C)O)NC1=O [UPAR-134, Butoc-[Cys-Thr-Lys(DOTA)-Tyr-Thi-Pro-Hyp-Ile-Nva-Cys]-NH2] (Butoxycarbonyl-CTK(DOTA)Y[2Thi]P[Hyp]I[Nva]C-NH2; disulfide 1-10) | < 1.58 nM | ≤ 10 nM |  |  | 
CCCCOC(=O)N[C@H]1CSSC[C@@H](C(N)=O)NC(=O)[C@H](CCC)NC(=O)[C@H]([C@@H](C)CC)NC(=O)[C@@H]2C[C@@H](O)CN2C(=O)[C@@H]2C[C@@H](O)CN2C(=O)[C@H](Cc2ccccc2)NC(=O)[C@H](Cc2ccc(O)cc2)NC(=O)[C@H](CCCCNC(=O)CN2CCN(CC(=O)O)CCN(CC(=O)O)CCN(CC(=O)O)CC2)NC(=O)[C@H]([C@@H](C)O)NC1=O [UPAR-128, Butoc-[Cys-Thr-Lys(DOTA)-Tyr-Phe-Hyp-Hyp-Ile-Nva-Cys]-NH2] (Butoxycarbonyl-CTK(DOTA)YF[Hyp][Hyp]I[Nva]C-NH2; disulfide 1-10) | < 1.58 nM | ≤ 10 nM |  |  | 
CC[C@H](C)[C@@H]1NC(=O)[C@@H](C)NC(=O)[C@@H]2CCCN2C(=O)[C@H](Cc2ccccc2)NC(=O)[C@H](Cc2ccc(O)cc2)NC(=O)[C@H](CCC(N)=O)NC(=O)[C@H](CCCNC(N)=O)NC(=O)[C@@H](NC(=O)CCC(C)C)CSSC[C@@H](C(=O)O)NC(=O)[C@H](CC(C)C)NC1=O [UPAR-131, iHex-[Cys-Cit-Gln-Tyr-Phe-Pro-ala-Ile-Leu-Cys]-OH] ({Pentanoyl(4-Me)}-C[Cit]QYFP[dA]ILC-OH; disulfide 1-10) | > 100 nM | ≥ 126 nM |  |  | 

The remaining lines, values ahead:

Kd [1] | IC50 [2] | pKD CAT [1] | pIC50 CAT [2] | Kd ([1]; single cycle kinetics) | Molecule
> 100 nM | ≥ 126 nM |  |  |  | CC[C@H](C)[C@@H]1NC(=O)[C@@H](C)NC(=O)[C@@H]2CCCN2C(=O)[C@H](Cc2ccccc2)NC(=O)[C@H](Cc2ccc(O)cc2)NC(=O)[C@H](CCC(N)=O)NC(=O)[C@H](CCCNC(=N)N)N(C)C(=O)[C@@H](NC(=O)CCC(C)C)CSSC[C@@H](C(N)=O)NC(=O)[C@H](CC(C)C)NC1=O [UPAR-287, iHex-[Cys-Nmr-Gln-Tyr-Phe-Pro-ala-Ile-Leu-Cys]-NH2] ({Pentanoyl(4-Me)}-C[NMeR]QYFP[dA]ILC-NH2; disulfide 1-10)
10 to 100 nM | 12.6 to 31.6 nM |  |  |  | CC[C@H](C)[C@@H]1NC(=O)[C@@H](C)NC(=O)[C@@H]2CCCN2C(=O)[C@H](Cc2ccc(O)cc2)NC(=O)[C@H](Cc2ccc(O)cc2)NC(=O)[C@H](CCC(N)=O)NC(=O)[C@H](CCCNC(N)=O)NC(=O)[C@@H](NC(=O)CCC(C)C)CSSC[C@@H](C(N)=O)NC(=O)[C@H](CC(C)C)NC1=O [UPAR-343, iHex-[Cys-Cit-Gln-Tyr-Tyr-Pro-ala-Ile-Leu-Cys]-NH2] ({Pentanoyl(4-Me)}-C[Cit]QYYP[dA]ILC-NH2; disulfide 1-10)
 | ≥ 126 nM |  |  | > 100 nM | CC[C@H](C)[C@@H]1NC(=O)[C@@H]2C[C@@H](O)CN2C(=O)[C@@H]2CCCN2C(=O)[C@H](Cc2ccccc2)NC(=O)[C@H](Cc2ccc(O)cc2)NC(=O)[C@H](CCC(N)=O)NC(=O)[C@H](CCCNC(N)=O)NC(=O)[C@@H](NC(=O)[C@H](CC(C)C)NC(=O)CN2CCN(CC(=O)O)CCN(CC(=O)O)CCN(CC(=O)O)CC2)CSSC[C@@H](C(N)=O)NC(=O)[C@H](CC(C)C)N(C)C1=O [UPAR-371, DOTA-Leu-[Cys-Cit-Gln-Tyr-Phe-Pro-Hyp-Ile-Nml-Cys]-NH2] ({DOTA}-LC[Cit]QYFP[Hyp]I[NMeL]C-NH2; disulfide 2-11)
 | ≤ 10 nM |  |  | < 1.58 nM | CCCCC(=O)N[C@H]1CSSC[C@@H](C(N)=O)NC(=O)[C@H](CCC)NC(=O)[C@H]([C@@H](C)CC)NC(=O)[C@@H]2C[C@@H](O)CN2C(=O)[C@@H]2CCCN2C(=O)[C@H](Cc2ccccc2)NC(=O)[C@H](Cc2c[nH]c3ccccc23)NC(=O)[C@H](CCC(N)=O)NC(=O)[C@H](CCCNC(=N)N)NC1=O [UPAR-401, Pent-[Cys-Arg-Gln-Trp-Phe-Pro-Hyp-Ile-Nva-Cys]-NH2] (Pentanoyl-CRQWFP[Hyp]I[Nva]C-NH2; disulfide 1-10)
 | ≤ 10 nM |  |  | 1.58 to 10 nM | CCC[C@@H]1NC(=O)[C@H]([C@@H](C)CC)NC(=O)[C@@H]2C[C@@H](O)CN2C(=O)[C@@H]2CCCN2C(=O)[C@H](Cc2ccccc2)NC(=O)[C@H](Cc2ccc(O)cc2)NC(=O)[C@H](CCC(N)=O)NC(=O)[C@H](CCCNC(=N)N)NC(=O)[C@@H](NC(=O)[C@H](CCc2ccccc2)NC(C)=O)CSSC[C@@H](C(N)=O)NC1=O [UPAR-484, Ac-Hfe-[Cys-Arg-Gln-Tyr-Phe-Pro-Hyp-Ile-Nva-Cys]-NH2] (Ac-[hPhe]CRQYFP[Hyp]I[Nva]C-NH2; disulfide 2-11)
